Read-outs that look alike come from different tables or passages of the source.
Key:
[1] = test system: HeLa cells; assay: XTT cytotoxicity assay, HeLa; assay type: cell-based, human
Text: (§1) The impact of substituents of the aromatic ring on the potency of molecules was also examined. The presence of either an electron withdrawing group (EWG) or an electron donating group (EDG) influences the reactivity of a Michael acceptor towards the target protein but can also impact specificity/selectivity.

[2] = test system: SKOV3 cells; assay: XTT cytotoxicity assay, SKOV3; assay type: cell-based, human
Text: as §1

[3] = Table 1, XTT assay, read-out: IC50 HeLa
[4] = Table 1, XTT assay, read-out: IC50 SKOV3
[5] = Table 2, read-out: IC50 HeLa (bridge compounds)
[6] = Table 2, read-out: IC50 SKOV3 (bridge compounds)

Structure (SMILES) | IC50 [1, 3] [nM] | IC50 [2, 4] [nM] | also measured
O=C1C(=Cc2ccc(O)c(O)c2)CNCC1=Cc1ccc(O)c(O)c1 [DHBC] | 667 | 788 | –
CC(N)C(=O)N1CC(=Cc2ccc(Cl)c(Cl)c2)C(=O)C(=Cc2ccc(Cl)c(Cl)c2)C1 (centres unmarked) [RA7-Ala] | 68 | 92 | –
NCC(=O)N1CC(=Cc2ccc(Cl)c(Cl)c2)C(=O)C(=Cc2ccc(Cl)c(Cl)c2)C1 [RA7-Gly] | 65 | 78 | –
CCC(C)C(NC(=O)C(F)(F)F)C(=O)N1CC(=Cc2ccc(Cl)c(Cl)c2)C(=O)C(=Cc2ccc(Cl)c(Cl)c2)C1 (centres unmarked) [RA7-IleC] | 61 | 77 | –
CCC(C)C(N)C(=O)N1CC(=Cc2ccc(Cl)c(Cl)c2)C(=O)C(=Cc2ccc(Cl)c(Cl)c2)C1 (centres unmarked) [RA7-Ile] | 72 | 101 | –
CC(C)C(N)C(=O)N1CC(=Cc2ccc(Cl)c(Cl)c2)C(=O)C(=Cc2ccc(Cl)c(Cl)c2)C1 (centres unmarked) [RA7-Val] | 64 | 72 | –
O=C1C(=Cc2ccc(Cl)c(Cl)c2)CNCC1=Cc1ccc(Cl)c(Cl)c1 [RA7] | 532 | 654 | –
CC(=O)NC(Cc1ccccc1)C(=O)N1CC(=Cc2ccc([N+](=O)[O-])cc2)C(=O)C(=Cc2ccc([N+](=O)[O-])cc2)C1 (centres unmarked) [RA183Ac] | 56 | 71 | –
C=CC(=O)NC(Cc1ccccc1)C(=O)N1CC(=Cc2ccc([N+](=O)[O-])cc2)C(=O)C(=Cc2ccc([N+](=O)[O-])cc2)C1 (centres unmarked) [RA183Acr] | 49 | 64 | –
O=C1C(=Cc2ccc([N+](=O)[O-])cc2)CN(C(=O)C(Cc2ccccc2)NC(=O)C(F)(F)F)CC1=Cc1ccc([N+](=O)[O-])cc1 (centres unmarked) [RA183CF3] | 45 | 79 | –
C=CC(=O)N[C@@H](Cc1ccccc1)C(=O)N1C/C(=C\c2ccc(Cl)c(Cl)c2)C(=O)/C(=C/c2ccc(Cl)c(Cl)c2)C1 [RA190 ACR] | 42 | 62 | –
NCCCCCC(=O)NC(Cc1ccccc1)C(=O)N1CC(=Cc2ccc(Cl)c(Cl)c2)C(=O)C(=Cc2ccc(Cl)c(Cl)c2)C1 (centres unmarked) [RA190AHA] | 62 | 88 | –
CC(=O)N[C@@H](Cc1ccccc1)C(=O)N1C/C(=C\c2ccc(Cl)c(Cl)c2)C(=O)/C(=C/c2ccc(Cl)c(Cl)c2)C1 [RA190Ac] | 46 | 68 | –
O=C(CCCC[C@@H]1SCC2NC(=O)NC21)N[C@@H](Cc1ccccc1)C(=O)N1C/C(=C\c2ccc(Cl)c(Cl)c2)C(=O)/C(=C/c2ccc(Cl)c(Cl)c2)C1 (some centres unmarked) [RA190B, reference compound] | 346 | – | –
O=C1C(=Cc2ccc(Cl)c(Cl)c2)CN(C(=O)C(Cc2ccccc2)NC(=O)c2ccccc2)CC1=Cc1ccc(Cl)c(Cl)c1 (centres unmarked) [RA190Bn] | 86 | 121 | –
N#CCC(=O)NC(Cc1ccccc1)C(=O)N1CC(=Cc2ccc(Cl)c(Cl)c2)C(=O)C(=Cc2ccc(Cl)c(Cl)c2)C1 (centres unmarked) [RA190CA] | 51 | 84 | –
O=C1C(=Cc2ccc(Cl)c(Cl)c2)CN(C(=O)C(Cc2ccccc2)NS(=O)(=O)c2ccc(-c3ccno3)s2)CC1=Cc1ccc(Cl)c(Cl)c1 (centres unmarked) [RA190IAS] | 211 | 342 | –
CS(=O)(=O)NC(Cc1ccccc1)C(=O)N1CC(=Cc2ccc(Cl)c(Cl)c2)C(=O)C(=Cc2ccc(Cl)c(Cl)c2)C1 (centres unmarked) [RA190MS] | 86 | 133 | –
CNC(=O)NC(Cc1ccccc1)C(=O)N1CC(=Cc2ccc(Cl)c(Cl)c2)C(=O)C(=Cc2ccc(Cl)c(Cl)c2)C1 (centres unmarked) [RA190MU] | 141 | 239 | –
Cn1cncc1S(=O)(=O)NC(Cc1ccccc1)C(=O)N1CC(=Cc2ccc(Cl)c(Cl)c2)C(=O)C(=Cc2ccc(Cl)c(Cl)c2)C1 (centres unmarked) [RA190NMS] | 78 | 94 | –
O=C1C(=Cc2ccc(Cl)c(Cl)c2)CN(C(=O)C(Cc2ccccc2)NC(=O)c2ccccn2)CC1=Cc1ccc(Cl)c(Cl)c1 (centres unmarked) [RA190P] | 55 | 64 | –
O=C1C(=Cc2ccc(Cl)c(Cl)c2)CN(C(=O)C(Cc2ccccc2)NC(=O)c2cnccn2)CC1=Cc1ccc(Cl)c(Cl)c1 (centres unmarked) [RA190PyC] | 65 | 84 | –
O=C(O)CCC(=O)NC(Cc1ccccc1)C(=O)N1CC(=Cc2ccc(Cl)c(Cl)c2)C(=O)C(=Cc2ccc(Cl)c(Cl)c2)C1 (centres unmarked) [RA190SA] | 121 | 253 | –
COc1cc(C(=O)NC(Cc2ccccc2)C(=O)N2CC(=Cc3ccc(Cl)c(Cl)c3)C(=O)C(=Cc3ccc(Cl)c(Cl)c3)C2)cc(OC)c1OC (centres unmarked) [RA190TMB] | 94 | 112 | –
CCCC(CCC)C(=O)NC(Cc1ccccc1)C(=O)N1CC(=Cc2ccc(Cl)c(Cl)c2)C(=O)C(=Cc2ccc(Cl)c(Cl)c2)C1 (centres unmarked) [RA190VA] | 74 | 87 | –
C=Cc1ccc(C(=O)NC(Cc2ccccc2)C(=O)N2CC(=Cc3ccc(Cl)c(Cl)c3)C(=O)C(=Cc3ccc(Cl)c(Cl)c3)C2)cc1 (centres unmarked) [RA190VBA] | 94 | 178 | –
CC(C)CC(N)C(=O)N1CC(=Cc2ccc(Cl)c(Cl)c2)C(=O)C(=Cc2ccc(Cl)c(Cl)c2)C1 (centres unmarked) [RA228] | 66 | 98 | –
O=C1C(=Cc2ccc(Cl)c(Cl)c2)CN(C(=O)C(Cc2ccccc2)NC(=O)C(F)(F)F)CC1=Cc1ccc(Cl)c(Cl)c1 (centres unmarked) [RA230] | 47 | 69 | –

Structure (SMILES) | IC50 [1, 3] [nM] | IC50 [2, 4] [nM] | also measured
Cc1ccc(S(=O)(=O)NC(Cc2ccccc2)C(=O)N2CC(=Cc3ccc(Cl)c(Cl)c3)C(=O)C(=Cc3ccc(Cl)c(Cl)c3)C2)cc1 (centres unmarked) [RA231] | 111 | 167 | –
O=C1C(=Cc2ccc(Cl)c(Cl)c2)CN(C(=O)C(Cc2ccccc2)NC(=O)N2CCOCC2)CC1=Cc1ccc(Cl)c(Cl)c1 (centres unmarked) [RA232] | 61 | 77 | –
O=C1C(=Cc2ccc(Cl)c(Cl)c2)CN(C(=O)C(Cc2ccccc2)NC(=O)c2cccnc2)CC1=Cc1ccc(Cl)c(Cl)c1 (centres unmarked) [RA233] | 76 | 98 | –
O=C(Nc1ccccc1)NC(Cc1ccccc1)C(=O)N1CC(=Cc2ccc(Cl)c(Cl)c2)C(=O)C(=Cc2ccc(Cl)c(Cl)c2)C1 (centres unmarked) [RA234] | 143 | 235 | –
NC(Cc1ccc(O)cc1)C(=O)N1CC(=Cc2ccc(Cl)c(Cl)c2)C(=O)C(=Cc2ccc(Cl)c(Cl)c2)C1 (centres unmarked) [RA295] | 89 | 116 | –
CC(=O)NCCCCC(N)C(=O)NC(Cc1ccccc1)C(=O)N1CC(=Cc2ccc(Cl)c(Cl)c2)C(=O)C(=Cc2ccc(Cl)c(Cl)c2)C1 (centres unmarked) [RA310Ac] | 195 | 284 | –
Cl.NCCCCC(N)C(=O)NC(Cc1ccccc1)C(=O)N1CC(=Cc2ccc(Cl)c(Cl)c2)C(=O)C(=Cc2ccc(Cl)c(Cl)c2)C1 (centres unmarked) [RA310] | 543 | 446 | fold decreased potency compared to RA190 ([1]; cytotoxicity, Table 1 cell lines (HeLa, SKOV3)): 3 fold
O=C1C(=Cc2ccc(Cl)c(Cl)c2)C2CCC(N2)C1=Cc1ccc(Cl)c(Cl)c1 [RA329] | – | – | IC50 [1, 5]: 407 nM; IC50 [2, 6]: 471 nM
O=C1C(=Cc2ccccc2)C2CCC(N2)C1=Cc1ccccc1 [RA330] | – | – | IC50 [1, 5]: 239 nM; IC50 [2, 6]: 278 nM
O=C1C(=Cc2ccc([N+](=O)[O-])cc2)C2CCC(N2)C1=Cc1ccc([N+](=O)[O-])cc1 [RA331] | – | – | IC50 [1, 5]: 236 nM; IC50 [2, 6]: 301 nM
O=C1C(=Cc2ccc(-c3cccnc3)cc2)C2CCC(N2)C1=Cc1ccc(-c2cccnc2)cc1 [RA332] | – | – | IC50 [1, 5]: 243 nM; IC50 [2, 6]: 376 nM
C=CC(=O)N1C2CCC1C(=Cc1ccc([N+](=O)[O-])cc1)C(=O)C2=Cc1ccc([N+](=O)[O-])cc1 [RA333] | – | – | IC50 [1, 5]: 112 nM; IC50 [2, 6]: 167 nM
C=CC(=O)N1C2CCC1C(=Cc1ccc(Cl)c(Cl)c1)C(=O)C2=Cc1ccc(Cl)c(Cl)c1 [RA334] | – | – | IC50 [1, 5]: 101 nM; IC50 [2, 6]: 186 nM
CC(=O)N1C2CCC1C(=Cc1ccc(Cl)c(Cl)c1)C(=O)C2=Cc1ccc(Cl)c(Cl)c1 [RA335] | – | – | IC50 [1, 5]: 161 nM; IC50 [2, 6]: 251 nM
C=CC(=O)N1C2CCC1C(=Cc1ccccc1)C(=O)C2=Cc1ccccc1 [RA336] | – | – | IC50 [1, 5]: 146 nM; IC50 [2, 6]: 185 nM
CC(=O)N1C2CCC1C(=Cc1ccccc1)C(=O)C2=Cc1ccccc1 [RA337] | – | – | IC50 [1, 5]: 186 nM; IC50 [2, 6]: 231 nM
C=CC(=O)NC(Cc1ccccc1)C(=O)N1C2CCC1C(=Cc1ccc(Cl)c(Cl)c1)C(=O)C2=Cc1ccc(Cl)c(Cl)c1 (centres unmarked) [RA339] | – | – | IC50 [1, 5]: 46 nM; IC50 [2, 6]: 54 nM
C=CC(=O)N1C2CCC1C(=Cc1ccc(-c3cccnc3)cc1)C(=O)C2=Cc1ccc(-c2cccnc2)cc1 [RA340] | – | – | IC50 [1, 5]: 184 nM; IC50 [2, 6]: 259 nM
O=C(CCl)N[C@@H](Cc1ccccc1)C(=O)N1C/C(=C\c2ccc(Cl)c(Cl)c2)C(=O)/C(=C/c2ccc(Cl)c(Cl)c2)C1 [RA371] | – | – | IC50 ([1]; Homo sapiens, HeLa, Table 1, XTT assay, read-out: IC50 HeLa): 44 nM; IC50 ([2]; Homo sapiens, SK-OV-3, Table 1, XTT assay, read-out: IC50 SKOV3): 47 nM
NC(Cc1ccccc1)C(=O)N1CC(=Cc2ccc(Cl)cc2)C(=O)C(=Cc2ccc(Cl)cc2)C1 (centres unmarked) [RA-4Cl] | 71 | 83 | –
O=C(CCl)NC(Cc1ccccc1)C(=O)N1CC(=Cc2csc(Br)c2)C(=O)C(=Cc2csc(Br)c2)C1 (centres unmarked) [RA-BTPCA] | 132 | 189 | –
NC(Cc1ccccc1)C(=O)N1CC(=Cc2ccc(Cl)c(C(F)(F)F)c2)C(=O)C(=Cc2ccc(Cl)c(C(F)(F)F)c2)C1 (centres unmarked) [RA-CTFP] | 56 | 81 | –
O=C1C(=Cc2ccc(Cl)c(C(F)(F)F)c2)CNCC1=Cc1ccc(Cl)c(C(F)(F)F)c1 [RA-CTF] | 324 | 457 | –
O=C1C(=CC=Cc2ccccc2)CNCC1=CC=Cc1ccccc1 [RA-Cinn] | > 5000 | > 5000 | –
COc1cc(C=C2CN(C(=O)C(N)Cc3ccccc3)CC(=Cc3cc(OC)c(OC)c(OC)c3)C2=O)cc(OC)c1OC (centres unmarked) [RA-TMP] | 78 | 125 | –
NC(Cc1ccccc1)C(=O)N1CC(=Cc2ccc([N+](=O)[O-])cc2)C(=O)C(=Cc2ccc(Cl)c(Cl)c2)C1 (centres unmarked) [RA-asyP] | 48 | 62 | –
O=C1C(=Cc2ccc([N+](=O)[O-])cc2)CNCC1=Cc1ccc(Cl)c(Cl)c1 [RA-asy] | 312 | 398 | –

— patent publication US12673918B2, “Small molecule RPN13 inhibitors with antitumor properties” (The Johns Hopkins University, priority 2019, dated 2026)
